Consider 1 compound from PMC10810651, “Discovery of novel and potent CDK8 inhibitors for the treatment of acute myeloid leukaemia” (Journal of Enzyme Inhibition and Medicinal Chemistry, 2024).

Molecules are shown by their SMILES.

In one test the target is CDK8 (Homo sapiens, UniProt P49336). Put plainly: CDK8 enzyme activity assay (ADP-Glo Kinase Assay). The format is biochemical. As to conditions: means ± SD. Here is the method:
Some of them with high inhibition rates were further measured for their IC50 values. Compound SEL-120 34 A was selected as a positive control. [table] [table] page 14: CO2 atmosphere incubator for 24 h. Then, medium with compound at the concentrations of 100, 20, 4, 0.8, 0.016 μM was added into each well for another 48 h and incubated with CCK-8 (10 μL) for 2 h at 37 °C. The absorbance value at 450 nm was measured by the microplate reader (PerkinElmer Envision). 1.4 Kinase Assay The kinase inhibition was detected by ADP-Glo™ Kinase Assay (Promega) using a black 384-well plate. The active CDK8 kinase was diluted in mixture (5 ng enzyme, 0.5 μg substrate, 50 μM DTT, 1 μL reaction buffer and added ddH2O to 3 μL each well) and the final ATP concentrations of was 50 μM. After incubation at room temperature, ADP-Glo™ solution and kinase detection reagent was added. The data was collected by the microplate reader. 1.5 Cellular thermal shift assay HCT-116 cells were cultured in cell culture dishes and treated with 5 μM compound 12 for 4 h. HCT-116 cells were collected, washed by PBS and cell suspensions were divided into 12 PCR tubes equally. Then,11 tubes were heated at 37, […] After that, cells were broken by ultr asonic treatment and centrifuged at 12000 rpm for 20 min. The supernatant was analyzed by western blot. 1.6 Biotin-pulldown assay After co-treated with 2 μM biotinylated compound and compound 12 for 12 h, HCT-116 cells were lysed with NP-40 containing PMSF and centrifuged at 14000 r for 30 min at 4 °C. Then, 40 μL supernatant was used as the input by adding 10 μL 5×SDS loading buffer, and the remains were mixed with Streptavidin Agarose (Novex, Carlsbad, CA, USA). After 6 h incuba tion at 4 °C, the beads were washed three times using lysis buffer and resuspended in 2× SDS loading buffer. HEK -293T cells overexpressed flag -tagged CDK8 were treated using above method. The samples were analyzed by western blot.

The next test concerns MV4-11. Put plainly: Antiproliferative CCK-8 assay, MV4-11. The format is cell-based. As to conditions: Homo sapiens; MV4-11, CCK-8 assay, means ± SD; read-out: GC50 (the source's name). The source says:
(§1) Compounds12, 13 and 30 were selected for further cell activity assessments based on the enzymatic activity assessment results. molm-13 and MV4-11(acute myeloid lineage leukaemia cells), MGC-803 (gastric cancer cell), MDA-MB-231(breast cancer cell), A375 (melanoma cell), A549 (lung cancer cell), HCT-116, SW-480 and HT-29 (colorectal cancer cells) were selected to evaluate antitumor activity in vitro, GES-1 (gastric mucosal epithelial cell) was selected to evaluate toxicity in vitro.
(§2) CO2 atmosphere incubator for 24 h. Then, medium with compound at the concentrations of 100, 20, 4, 0.8, 0.016 μM was added into each well for another 48 h and incubated with CCK-8 (10 μL) for 2 h at 37 °C. The absorbance value at 450 nm was measured by the microplate reader (PerkinElmer Envision). […]

A further test relates to MGC-803. Description: Antiproliferative CCK-8 assay, MGC-803. As to conditions: Homo sapiens; MGC-803, CCK-8 assay, means ± SD; read-out: GC50 (the source's name). In kind it is cell-based.
Source text: as §1, §2
A general note: Tetrazolium dyes change colour on reduction, which living cells bring about.

The test system of the next test is A549. Description: Antiproliferative CCK-8 assay, A549. As to conditions: Homo sapiens; A549, CCK-8 assay, means ± SD; read-out: GC50 (the source's name). The format is cell-based.
Source text: as §1, §2

The next test deals with HCT-116. Description: Antiproliferative CCK-8 assay, HCT-116. The format is cell-based. As to conditions: Homo sapiens; HCT-116, CCK-8 assay, means ± SD; read-out: GC50 (the source's name).
Source text: as §1, §2

The next test has as its system HT-29. Description: Antiproliferative CCK-8 assay, HT-29. In kind it is cell-based. As to conditions: Homo sapiens; HT-29, CCK-8 assay, means ± SD; read-out: GC50 (the source's name).
Source text: as §1, §2

Another test has as its target CDK9 (Homo sapiens, UniProt P50750). Put plainly: CDKs selectivity, CDK9. The format is biochemical. An excerpt:
CDK7 and CDK9 with the same transcription function and CDK2 and CDK6 were selected to evaluate the selectivity of compound 12.

A further test concerns STAT1 Tyr701. Put plainly: Phosphorylation of STAT1 Tyr701, western blot. The format is cell-based. As to conditions: HCT-116 cells, 1, 2, 4 μM, 12 h. As for the experimental part:
(§3) It has been reported that CDK8 could specifically target the transactivation domain of STAT1 at Ser727 phosphorylation. HCT-116 cells were treated with compounds 12 with different concentrations of 1 μM, 2 μM, 4 μM separately to verify compound 12 could inhibit the phosphorylation of STAT1 Ser727. […] It’s reported that CDK8 was also involved in S726 phosphorylation of STAT5 in AML cells.
(§4) 1.7 The effect of compound on phosphorylation of STAT1 S727
HCT-116 cells were seeded into 60 mm cultural dishes at a density of 1.5×10^6 cells per dishes. After incubated for 12 h, cells were treated with DMSO or 10ng/mL IFN-γ.1 hour later, cells were treated with or without different concentrations of compound for 12 h. Cells were lysed using RIPA containing PMSF and phosphatase inhibitor cocktail A. Then cell samples were treated by western blot. Levels of total STAT1, phosphorylated STAT1 S727, Y701 and GAPDH were analyzed.
1.8 The effect of compound on phosphorylation of STAT5 S726
HL-60 cells were seeded into 60 mm cultural dishes at a density of 2×10^6 cells per dishes. […]
(§5) Levels of total STAT5, phosphorylated STAT5 S726 and GAPDH were analyzed.
(§6) The results were expressed as the means ± SEMs (SPSS software), and the differences between groups were evaluated using Turkey’s method (GraphPad Software). […]
(In general: A western blot detects proteins with antibodies after separation by electrophoresis.)

Another test has as its system STAT5 S726. Description: Phosphorylation of STAT5 S726, western blot. In kind it is cell-based. As to conditions: HL-60 cells, 12 h. As for the experimental part: as §3
Figure 6. Compound 12 inhibited phosphorylation of STAT1 S727 and STAT5 S726. (A) Compound 12 suppressed the phosphorylation of STAT1 S727 in a dose-dependent manner. HCT-116 cells were treated with compound for 12 h. (B) Compound 12 suppressed the phosphorylation of STAT5 S726 in a dose dependent manner. HL-60 cells were treated with or without compound for 12 h. The samples were analysed by Western blot.
as §4
HCT-116 cells were seeded into 60 mm cultural dishes at a density of 1.5×10^6 cells per dishes. […] Levels of total STAT1, phosphorylated STAT1 S727, Y701 and GAPDH were analyzed. […]
as §5, §6

Sequence of CDK8 (P49336 whole entry): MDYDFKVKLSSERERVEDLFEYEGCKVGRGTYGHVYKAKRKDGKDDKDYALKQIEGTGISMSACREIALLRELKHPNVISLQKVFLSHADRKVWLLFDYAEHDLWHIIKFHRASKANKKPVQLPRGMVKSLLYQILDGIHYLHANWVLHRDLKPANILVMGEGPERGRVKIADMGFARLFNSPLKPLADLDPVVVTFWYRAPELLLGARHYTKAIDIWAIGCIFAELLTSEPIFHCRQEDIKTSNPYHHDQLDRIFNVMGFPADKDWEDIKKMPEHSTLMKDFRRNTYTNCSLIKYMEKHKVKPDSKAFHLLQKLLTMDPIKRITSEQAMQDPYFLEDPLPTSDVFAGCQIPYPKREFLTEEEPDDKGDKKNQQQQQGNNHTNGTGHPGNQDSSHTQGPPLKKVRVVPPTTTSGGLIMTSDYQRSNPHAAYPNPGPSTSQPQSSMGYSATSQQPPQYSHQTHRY
Sequence of CDK8 (P24863 whole entry partner): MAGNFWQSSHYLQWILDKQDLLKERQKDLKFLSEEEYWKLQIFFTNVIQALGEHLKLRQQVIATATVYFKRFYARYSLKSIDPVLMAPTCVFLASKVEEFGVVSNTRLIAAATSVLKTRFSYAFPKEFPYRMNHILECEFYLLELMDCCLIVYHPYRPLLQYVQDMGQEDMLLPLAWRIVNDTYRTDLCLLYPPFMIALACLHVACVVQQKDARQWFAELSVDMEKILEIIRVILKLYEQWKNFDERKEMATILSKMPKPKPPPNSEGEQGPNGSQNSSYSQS
Sequence of CDK9 (P50750 whole entry): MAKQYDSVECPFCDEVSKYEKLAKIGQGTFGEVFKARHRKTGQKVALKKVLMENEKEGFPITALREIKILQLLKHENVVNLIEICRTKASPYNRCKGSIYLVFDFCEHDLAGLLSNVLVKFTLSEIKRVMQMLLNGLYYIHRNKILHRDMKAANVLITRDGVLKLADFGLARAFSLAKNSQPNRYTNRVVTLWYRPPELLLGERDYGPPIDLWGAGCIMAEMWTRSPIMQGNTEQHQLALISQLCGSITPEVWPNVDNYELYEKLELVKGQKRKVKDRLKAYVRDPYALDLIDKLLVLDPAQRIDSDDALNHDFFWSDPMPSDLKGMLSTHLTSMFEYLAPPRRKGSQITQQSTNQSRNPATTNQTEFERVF

On to `NC(=O)c1cccc(-c2cnc3[nH]cc(-c4ccoc4)c3c2)c1` [Compound 12, 3-(3-(furan-3-yl)-1H-pyrrolo[2,3-b]pyridin-5-yl)benzamide], for which the inhibition at 0.2 µM at CDK8 (CDK8, 200 nM, two experiments, read-out: Inhibition rate @ 200 nM (%)) worked out at 80.9 ± 3.5%. Besides, the IC50 against CDK8 (three experiments) is 0.0392 ± 0.0063 µM; in the test on MV4-11 it was 0.03 ± 0.01 µM; in the test on MGC-803, 11.7 ± 1.93 µM; with A549, 15.5 ± 2.78 µM; in the test with HCT-116 it was 3.66 ± 1.94 µM; with HT-29, 8.26 ± 0.65 µM. On CDK9, the IC50 was determined as 0.474 ± 0.0253 µM. In addition, in the test with STAT1 Tyr701, the “Phosphorylation of STAT1 Tyr701” value is recorded as “not inhibited”. The “Phosphorylation of STAT5 S726” value in the test with STAT5 S726 is on record as “could inhibit phosphorylation of STAT5 S726 in a dose-dependent manner”.

Usually inhibition stands for how much of the control response was suppressed.
